Measured values published in patent US7435837B2, “Dihydrobenzofuranyl alkanamine derivatives and methods for using same” (Wyeth, priority 2003, dated 2008).
Counter-ions that a name gives are not always drawn.

Columns and labels:
[1] = molecular target: T1, human 5-hydroxytryptamine-2C (h5-HT2C) receptor (Homo sapiens, UniProt P28335); experiment: [125I]DOI binding to membranes of CHO cells expressing the human 5-HT2C receptor; conditions: [125I]DOI radioligand, CHO cell membranes, room temperature 60 min; read-out: 5-HT2C Affinity Ki
T1 construct: expressed in transfected cells; host or cells: CHO (Chinese Hamster Ovary) cells; membranes
T1 sequence (P28335 33-458): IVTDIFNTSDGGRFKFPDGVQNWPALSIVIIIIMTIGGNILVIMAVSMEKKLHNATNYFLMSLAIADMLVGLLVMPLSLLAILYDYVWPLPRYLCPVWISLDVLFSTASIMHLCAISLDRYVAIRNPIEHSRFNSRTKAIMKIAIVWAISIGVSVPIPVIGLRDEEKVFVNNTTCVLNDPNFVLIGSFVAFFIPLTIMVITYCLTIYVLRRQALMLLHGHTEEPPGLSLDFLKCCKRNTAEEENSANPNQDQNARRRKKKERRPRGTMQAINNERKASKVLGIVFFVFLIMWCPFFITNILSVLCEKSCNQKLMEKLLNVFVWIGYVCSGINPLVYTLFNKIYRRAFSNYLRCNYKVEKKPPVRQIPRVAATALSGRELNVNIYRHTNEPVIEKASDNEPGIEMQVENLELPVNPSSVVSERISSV

human 5-HT2C receptor = molecular target: T2, human 5-HT2C receptor (Homo sapiens, UniProt P28335); experiment: 5-HT2C receptor-stimulated calcium mobilization (FLIPR) in CHO cells; assay type: cell-based; conditions: for EC50: calcium mobilization, CHO cells stably expressing human 5-HT2C, read-out: 5-HT2C Function EC50; for 5-HT2C Function Emax (%) / Emax: percentage of the response observed with a maximally effective concentration of 5-HT; for Emax: CHO, read-out: 5-HT2C Function Emax (%);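 for all read-outs here: Fluo-3-AM fluorescence read on FLIPR every 1 s, agonist added after 10 baseline reads, response taken as peak minus lowest raw fluorescence count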
T2 sequence (P28335 33-458): T1 sequence (P28335 33-458)

Structure (SMILES)	melting point	Ki [1] [nM]	EC50 (human 5-HT2C receptor) [nM]	5-HT2C Function Emax (%) (human 5-HT2C receptor)	Emax (human 5-HT2C receptor) [%]
NCC1Cc2c(F)ccc(-c3ccccc3)c2O1 (racemic) (as salt: hydrochloride) [Example 98, (±)-1-(4-fluoro-7-phenyl-2,3-dihydro-1-benzofuran-2-yl)methanamine]	254 to 257 °C	–	–	–	–
COc1ccc2c(c1)OC(CN)C2 (racemic) (as salt: hydrochloride) [Example 30, (±)-1-(6-methoxy-2,3-dihydro-1-benzofuran-2-yl)methanamine]	> 220 °C	–	–	–	–
Cc1ccccc1-c1cccc2c1CC(CN)O2 (single isomer, unassigned; (+)) (as salt: hydrobromid) [Example 5, (+)-1-[4-(2-methylphenyl)-2,3-dihydro-1-benzofuran-2-yl]methanamine]	232 to 233 °C	–	–	–	–
NCC1Cc2cc(F)cc(-c3ccccc3Cl)c2O1 (single isomer, unassigned; (-)) (as salt: hydrochloride) [Example 102, (−)-1-[7-(2-chlorophenyl)-5-fluoro-2,3-dihydro-1-benzofuran-2-yl]methanamine]	206 to 209 °C	–	–	–	–
NCC1Cc2cccc(-c3ccccc3)c2O1 (racemic) (as salt: hydrochloride) [Example 36, (±)-1-(7-phenyl-2,3-dihydro-1-benzofuran-2-yl)methanamine]	> 200 °C (dec.)	–	–	–	–
CC(C)(C)c1cccc2c1OC(CN)C2 (racemic) (as salt: hydrochloride) [Example 24, (±)-1-(7-tert-butyl-2,3-dihydro-1-benzofuran-2-yl)methanamine]	177 to 180 °C (dec.)	–	–	–	–
NCC1Cc2cc(F)cc(-c3ccccc3Cl)c2O1 (racemic) (as salt: hydrochloride) [Example 100, (±)-1-[7-(2-chlorophenyl)-5-fluoro-2,3-dihydro-1-benzofuran-2-yl]methanamine]	> 250 °C (dec.)	–	–	–	–
NCC1Cc2cccc(-c3ccc(Cl)cc3Cl)c2O1 (single isomer, unassigned; (-)) (as salt: hydrochloride) [Example 149, (−)-1-[7-(2,4-dichlorophenyl)-2,3-dihydro-1-benzofuran-2-yl]methanamine]	203 to 206 °C	–	–	–	–
NCC1Cc2cccc(-c3ccccc3C(F)(F)F)c2O1 (single isomer, unassigned; (+)) [Example 55, (+)-1-{7-[2-(trifluoromethyl)phenyl]-2,3-dihydro-1-benzofuran-2-yl}methanamine]	–	3	48	70	–
NCC1Cc2cc(Cl)cc(-c3ccc(F)c(F)c3)c2O1 (racemic) [Example 258, (±)-{[5-chloro-7-(3,4-difluorophenyl)-2,3-dihydro-1-benzofuran-2-yl]methyl}amine]	–	42	734	–	80
NCC1Cc2cc(Cl)cc(-c3cccc(F)c3F)c2O1 (single isomer, unassigned; (-)) [Example 245, (−)-{[5-chloro-7-(2,3-difluorophenyl)-2,3-dihydro-1-benzofuran-2-yl]methyl}amine]	–	2	57	–	100
NCC1Cc2cccc(-c3ccc(F)cc3F)c2O1 (single isomer, unassigned; (-)) [Example 148, (−)-1-[7-(2,4-difluorophenyl)-2,3-dihydro-1-benzofuran-2-yl]methanamine]	–	12	290	70	–
NCC1Cc2cccc(-c3ccsc3)c2O1 (single isomer, unassigned; (+)) [Example 45, (+)-1-(7-thien-3-yl-2,3-dihydro-1-benzofuran-2-yl)methanamine]	–	2	5	–	90
NCC1Cc2cccc(-c3cccnc3)c2O1 (racemic) [Example 170, (±)-[(7-pyridin-3-yl-2,3-dihydro-1-benzofuran-2-yl)methyl]amine]	–	3.3	14	–	90
NCC1Cc2cccc(-c3cccc(Cl)c3)c2O1 (racemic) [Example 65, (±)-1-[7-(3-chlorophenyl)-2,3-dihydro-1-benzofuran-2-yl]methanamine]	–	11	187	–	100
COc1ccc(C)cc1-c1cc(F)cc2c1OC(CN)C2 (racemic) [Example 225, (±)-{[5-fluoro-7-(2-methoxy-5-methylphenyl)-2,3-dihydro-1-benzofuran-2-yl]methyl}amine]	–	1.2	3	–	90
Cc1ccccc1-c1cccc2c1CC(CN)O2 (racemic) [Example 4, (±)-1-[4-(2-methylphenyl)-2,3-dihydro-1-benzofuran-2-yl]methanamine]	–	26	562	–	100

Now from value to molecule:

melting point	Ki [1] [nM]	EC50 (human 5-HT2C receptor) [nM]	5-HT2C Function Emax (%) (human 5-HT2C receptor)	Emax (human 5-HT2C receptor) [%]	Structure (SMILES)
–	11	8	–	90	CNCC1Cc2cc(OC)cc(-c3ccccc3C)c2O1 (racemic) [Example 493, (±)-{[7-(2-methylphenyl)-5-methoxy-2,3-dihydro-1-benzofuran-2-yl]methyl}methylamine]
–	14	44	–	90	Cc1cccc(C)c1-c1cc(C(F)(F)F)cc2c1OC(CN)C2 (racemic) [Example 338, (±)-{[7-(2,6-dimethylphenyl)-5-(trifluoromethyl)-2,3-dihydro-1-benzofuran-2-yl]methyl}amine]
–	3.8	7	–	90	COc1ccc(-c2cc(C)cc3c2OC(CN)C3)cc1 (racemic) [Example 293, (±)-{[7-(4-methoxyphenyl)-5-methyl-2,3-dihydro-1-benzofuran-2-yl]methyl}amine]
–	3.1	7	–	80	CNCC1Cc2cc(OC)cc(-c3ccccc3Cl)c2O1 (racemic) [Example 492, (±)-{[7-(2-chlorophenyl)-5-methoxy-2,3-dihydro-1-benzofuran-2-yl]methyl}methylamine]
–	0.3	7	90	–	CNCC1Cc2cc(F)cc(-c3c(C)cccc3C)c2O1 (single isomer, unassigned; (-)) [Example 559, (−)-{[7-(2,6-dimethylphenyl)-5-fluoro-2,3-dihydro-1-benzofuran-2-yl]methyl}methylamine]
–	8.5	149	60	–	CNCC1Cc2cccc(-c3ccccc3C)c2O1 (single isomer, unassigned; (-)) [Example 407, (−)-N-methyl-1-[7-(2-methylphenyl)-2,3-dihydro-1-benzofuran-2-yl]methanamine]
–	0.3	0.4	–	90	Cc1ccccc1-c1c(F)ccc2c1OC(CN)C2 (racemic) [Example 395, (±)-{[6-fluoro-7-(2-methylphenyl)-2,3-dihydro-1-benzofuran-2-yl]methyl}amine]
–	3.8	1360	–	80	CNCC1Cc2cccc(-c3ccc(F)cc3)c2O1 (racemic) [Example 419, (±)-[(N-methyl-1-[7-(4-fluorophenyl)-2,3-dihydro-1-benzofuran-2-yl]methanamine]
–	1.8	2	–	80	CCNCC1Cc2cccc(-c3c(Cl)cccc3Cl)c2O1 (racemic) [Example 390, (±)-N-{[7-(2,6-dichlorophenyl)-2,3-dihydro-1-benzofuran-2-yl]methyl}ethanamine]
